Assay [1] deals with T1, human B1R receptor (Homo sapiens, UniProt P46663).
T1 construct: host or cells: CHO K1 cells (Chinese hamster ovary), stably transfected
T1 sequence (P46663 1-353): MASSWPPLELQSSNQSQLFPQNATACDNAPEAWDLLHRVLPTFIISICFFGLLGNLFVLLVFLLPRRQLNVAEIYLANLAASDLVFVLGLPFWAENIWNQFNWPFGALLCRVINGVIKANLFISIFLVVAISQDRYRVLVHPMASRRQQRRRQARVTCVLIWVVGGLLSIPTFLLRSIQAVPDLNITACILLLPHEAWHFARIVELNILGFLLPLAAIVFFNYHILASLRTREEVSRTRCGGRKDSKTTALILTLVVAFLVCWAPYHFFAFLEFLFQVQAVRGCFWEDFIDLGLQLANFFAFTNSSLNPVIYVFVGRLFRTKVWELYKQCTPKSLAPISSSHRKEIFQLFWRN
The assay is described as follows: Functional study on the bradykinin receptor 1 (B1R), FLIPR Ca2+ assay, hB1R cells. The note with it: CHO-K1, test substance 10 μM, agonist Lys-Des-Arg9-bradykinin 0.5 nM, % inhibition compared with the maximum achievable inhibition, read-out: B1R Antagonism, human [10 μM] % Inhibition. It is filed as cell-based. An outline of the steps: (§1)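 Cells were dye-loaded 60 min at 37 °C, equilibrated 20 min at room temperature, then given 10 μM compound. Ten minutes later the species-matched agonist was added (0.5 nM Lys-Des-Arg9-bradykinin, human; 100 nM Des-Arg9-bradykinin, rat) and Ca2+ influx suppression expressed as % of maximum inhibition.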

For assay [2], the target named is T2, B1R receptor of the rat (Rattus norvegicus, UniProt P97583).
T2 construct: host or cells: CHO K1 cells (Chinese hamster ovary), stably transfected
T2 sequence (P97583 1-337): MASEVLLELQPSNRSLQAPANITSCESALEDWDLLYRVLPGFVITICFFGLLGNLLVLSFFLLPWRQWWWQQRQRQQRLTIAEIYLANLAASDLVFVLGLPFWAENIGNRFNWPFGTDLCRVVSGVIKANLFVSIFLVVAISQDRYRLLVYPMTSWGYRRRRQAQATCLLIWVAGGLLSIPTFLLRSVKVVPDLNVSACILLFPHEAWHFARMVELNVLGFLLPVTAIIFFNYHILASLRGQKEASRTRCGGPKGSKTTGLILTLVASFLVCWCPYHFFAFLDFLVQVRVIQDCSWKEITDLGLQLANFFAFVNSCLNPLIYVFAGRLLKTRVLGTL
The assay is described as follows: Functional study on the bradykinin receptor 1 (B1R), FLIPR Ca2+ assay, rB1R cells. It is filed as cell-based. Conditions: CHO-K1, test substance 10 μM, agonist Des-Arg9-bradykinin 100 nM, % inhibition compared with the maximum achievable inhibition, read-out: B1R Antagonism, rat [10 μM] % Inhibition. An outline of the steps: as §1

In the case of `CC(C)N(CCN1CCN(C(=O)COCC2CCCN2S(=O)(=O)c2c(Cl)cc(Cl)cc2Cl)CC1)C(C)C` (stereo not shown) [Example 333, 1-(4-(2-(diisopropylamino)ethyl)piperazin-1-yl)-2-((1-(2,4,6-trichlorophenylsulfonyl)pyrrolidin-2-yl)methoxy)ethanone], the inhibition at 10 µM in assay [1] was 107%; in assay [2], 101%.

Regarding `O=C(COCC1CCCN1S(=O)(=O)c1c(Cl)cc(Cl)cc1Cl)N(C1CC1)C1CCN(Cc2ccccc2)CC1` (stereo not shown) [Example 334, N-(1-benzylpiperidin-4-yl)-N-cyclopropyl-2-((1-(2,4,6-trichlorophenylsulfonyl)pyrrolidin-2-yl)methoxy)acetamide], the inhibition at 10 µM was 107% in assay [1] and 101% in assay [2].

Regarding `O=C(COCC1CCCN1S(=O)(=O)c1c(Cl)cc(Cl)cc1Cl)N1CCN(c2ccncc2)CC1` (stereo not shown) [Example 335, 1-(4-(pyridin-4-yl)piperazin-1-yl)-2-((1-(2,4,6-trichlorophenylsulfonyl)pyrrolidin-2-yl)methoxy)ethanone], the inhibition at 10 µM in assay [1] is 106%; in assay [2] it was 99.8%.

For `O=C(COCC1CCCCN1S(=O)(=O)c1c(Cl)cccc1Cl)N1CCC(N2CCCCC2)CC1` (stereo not shown) [Example 336, 1-(1,4′-bipiperidin-1′-yl)-2-((1-(2,6-dichlorophenylsulfonyl)piperidin-2-yl)methoxy)ethanone], the inhibition at 10 µM in assay [1] is 103%; in assay [2] it was 105%.

`O=C(COCC1CCCN1S(=O)(=O)c1c(Cl)cccc1Cl)N1CCC(N2CCCCC2)CC1` (stereo not shown) [Example 337, 1-(1,4′-bipiperidin-1′-yl)-2-((1-(2,6-dichlorophenylsulfonyl)pyrrolidin-2-yl)methoxy)ethanone]: the inhibition at 10 µM in assay [1] and in assay [2] was 104% each time.

On to `O=C(COCC1CCCN1S(=O)(=O)c1c(Cl)cc(Cl)cc1Cl)NCCN1CCCCC1` (stereo not shown) [Example 338, N-(2-(piperidin-1-yl)ethyl)-2-((1-(2,4,6-trichlorophenylsulfonyl)pyrrolidin-2-yl)methoxy)acetamide], for which the inhibition at 10 µM in assay [1] amounted to 92.6%; in assay [2], 92.2%.

Regarding `O=C(COCC1CCCN1S(=O)(=O)c1c(Cl)cc(Cl)cc1Cl)NCCN1CCCC1` (stereo not shown) [Example 339, N-(2-(pyrrolidin-1-yl)ethyl)-2-((1-(2,4,6-trichlorophenylsulfonyl)pyrrolidin-2-yl)methoxy)acetamide], the inhibition at 10 µM amounted to 77.5% in assay [1] and 41.6% in assay [2].

`COc1cc(OC)cc(N2CCN(C(=O)COCC3CCCCN3S(=O)(=O)c3c(C)cc(OC)cc3C)CC2)c1` (stereo not shown) [Example 340, 1-(4-(3,5-dimethoxyphenyl)piperazin-1-yl)-2-((1-(4-methoxy-2,6-dimethylphenylsulfonyl)piperidin-2-yl)methoxy)ethanone]: the inhibition at 10 µM in assay [1] stood at 105%; in assay [2], 101%.

Consider `COc1cc(C)c(S(=O)(=O)N2CCCCC2COCC(=O)N2CCN(CCN(C(C)C)C(C)C)CC2)c(C)c1` (stereo not shown) [Example 341, 1-(4-(2-(diisopropylamino)ethyl)piperazin-1-yl)-2-((1-(4-methoxy-2,6-dimethylphenylsulfonyl)piperidin-2-yl)methoxy)ethanone], for which the inhibition at 10 µM was determined as 105% in assay [1] and 102% in assay [2].

For the molecule `COc1cc(C)c(S(=O)(=O)N2CCCCC2COCC(=O)N(C2CC2)C2CCN(Cc3ccccc3)CC2)c(C)c1` (stereo not shown) [Example 342, N-(1-benzylpiperidin-4-yl)-N-cyclopropyl-2-((1-(4-methoxy-2,6-dimethylphenylsulfonyl)piperidin-2-yl)methoxy)acetamide], the inhibition at 10 µM in assay [1] is 104%; in assay [2] it was 100%.

For the molecule `COc1cc(C)c(S(=O)(=O)N2CCCCC2COCC(=O)NCCN2CCCC2)c(C)c1` (stereo not shown) [Example 343, 2-((1-(4-methoxy-2,6-dimethylphenylsulfonyl)piperidin-2-yl)methoxy)-N-(2-(pyrrolidin-1-yl)ethyl)acetamide], the inhibition at 10 µM in assay [1] was 80%; in assay [2], 100%.

Broadly, the inhibition is the change of the read-out against control, counted positive when it falls.

For the origin of these results see patent US8435978B2, “Substituted sulfonamide compounds” (Gruenenthal GmbH, priority 2006, dated 2013).
